Measured values as given in PMC10974732 (2024).
Values after ≈ are worked out from the molar mass of the structure shown.

The compounds below were run on 2B.N2A9 (DNA, aptamer) CATCTGCAGTGTGGCACCATGGGCATTGGGGGGCGAGGGTGGTTGGAGCGTTTGTGTGCGACGTGCTGAGCGTGAATTCGC (assay: indirect competitive ELOSA (SA-HRP/TMB)). Details: 37 °C, 1 h; 50 nM aptamer; competes with immobilised Neu5Gc-BSA (1 μg/mL coating).

IC50	SMILES
467.74 ng/mL (≈ 1.51 µM)	CC(=O)N[C@H]1[C@H]([C@H](O)[C@H](O)CO)OC(O)(C(=O)O)C[C@@H]1O (stereo partly shown)
> 93,500.00 ng/mL	OC[C@H]1O[C@@](CO)(O[C@H]2O[C@H](CO)[C@@H](O)[C@H](O)[C@H]2O)[C@@H](O)[C@@H]1O
9.35 ng/mL (≈ 0.0287 µM)	O=C(CO)N[C@H]1[C@H]([C@H](O)[C@H](O)CO)OC(O)(C(=O)O)C[C@@H]1O (stereo partly shown)
36,307.8 ng/mL	CC(=O)N[C@@H]1C(O)O[C@H](CO)[C@@H](O)[C@@H]1O (stereo partly shown)
1659.58 ng/mL (≈ 6.19 µM)	O=C(O)C1(O)C[C@H](O)[C@@H](O)[C@H]([C@H](O)[C@H](O)CO)O1 (stereo partly shown)
> 93,500.00 ng/mL	OC[C@H]1O[C@H](O[C@H]2[C@H](O)[C@@H](O)C(O)O[C@@H]2CO)[C@H](O)[C@@H](O)[C@@H]1O (stereo partly shown)
> 93,500.00 ng/mL	OC[C@H]1OC(O)[C@H](O)[C@@H](O)[C@@H]1O (stereo partly shown)
